Measurements published in patent publication US20210101879A1, “AMYLOID PROTEIN-SELECTIVE BACE INHIBITORS (ASBIs) FOR ALZHEIMER?S DISEASE” (The Regents of the University of California, priority 2018, published 2021).
Several values for one entry are separate records, joined by “and”; a condition that tells them apart may be missing. Identical values can stand only once. Like-named read-outs stand apart in the source and are kept apart here.

How the values were obtained:
[1] = biological target: BACE-1 (Homo sapiens (Human), UniProt P56817); assay: cell-free BACE enzyme assay with P5-P5′ substrate; format: biochemical
Sequence of BACE-1 (P56817 46-501): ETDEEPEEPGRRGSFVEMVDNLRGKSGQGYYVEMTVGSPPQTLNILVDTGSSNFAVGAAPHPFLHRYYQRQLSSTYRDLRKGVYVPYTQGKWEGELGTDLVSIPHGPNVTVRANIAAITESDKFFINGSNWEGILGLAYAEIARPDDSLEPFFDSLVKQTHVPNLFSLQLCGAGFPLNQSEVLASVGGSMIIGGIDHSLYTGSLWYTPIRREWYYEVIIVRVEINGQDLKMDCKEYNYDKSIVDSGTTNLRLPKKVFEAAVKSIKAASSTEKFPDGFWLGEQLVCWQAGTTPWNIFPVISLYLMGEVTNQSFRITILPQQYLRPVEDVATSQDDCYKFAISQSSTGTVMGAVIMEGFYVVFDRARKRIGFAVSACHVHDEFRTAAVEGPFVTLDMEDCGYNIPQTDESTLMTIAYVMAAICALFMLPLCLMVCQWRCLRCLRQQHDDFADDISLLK
Procedure: For the assay, 4 μL of assay buffer was added to each well, followed by 2 μL of BACE-1 diluted in assay buffer to 7.5 ng/μL. Then, 2 μL of inhibitor, at concentrations along an 11 pt. two-fold dilution series starting at 0.5 μM, were added to appropriate wells and incubated for 30 minutes at room temperature. Afterwards, 2 μL of P5-P5′ BACE-1 substrate, diluted to 50 μM in assay buffer, were added to each well, after which the signal generated was read every 30 minutes at 25° C. for 2 hr.

[2] = PAMPA; format: in vitro ADME
[3] = biological target: Cathepsin D (CatD) (Homo sapiens (Human), UniProt P07339); assay: Cathepsin-D assay; format: biochemical
Sequence of Cathepsin D (CatD) (P07339 65-412, species assumed): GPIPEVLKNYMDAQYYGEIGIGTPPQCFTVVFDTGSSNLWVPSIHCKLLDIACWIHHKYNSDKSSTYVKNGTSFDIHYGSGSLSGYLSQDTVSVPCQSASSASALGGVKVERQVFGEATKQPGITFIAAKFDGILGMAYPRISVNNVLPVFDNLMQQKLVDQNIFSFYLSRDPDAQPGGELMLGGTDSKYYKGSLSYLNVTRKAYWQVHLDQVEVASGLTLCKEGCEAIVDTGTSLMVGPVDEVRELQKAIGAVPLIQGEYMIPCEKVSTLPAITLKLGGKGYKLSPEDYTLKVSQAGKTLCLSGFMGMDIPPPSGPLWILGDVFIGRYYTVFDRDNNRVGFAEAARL
Procedure: For the assay, 4 μL of assay buffer was added to each well, followed by 2 μL of Cathepsin D (CatD) diluted in assay buffer to 5 ng/μL. Then, 2 μL of inhibitor, prepared to get a testing concentration of 20 μM, were added to appropriated wells and incubated for 30 minutes at room temperature. Afterwards, 2 μL of CatD substrate, diluted to 50 μM in assay buffer, were added to each well, after which the signal generated was read every 30 minutes at 25° C. for 1 hr. Signals shown in FIG. 6 are representative of readings at 1 hr.

[4] = tested on: CHO-7W cells (stably transfected with human amyloid precursor protein wildtype); assay: CHO-7W cell assay (AlphaLISA of media); format: cell-based, Chinese hamster; conditions: treatment for 24 hours
Procedure: For the assay, 50 μL of CHO-7W cells were added to each well at 4×10^5 cells/mL. Then, 50 μL of inhibitor, prepared for tested concentrations, were added to appropriated wells and incubated for 24 hours at 37° C. Afterwards, media from each well is collected and assayed using an AlphaLISA assay for respective analytes.

[5] = pharmacokinetics in mice; format: in vivo
[6] = cell-free, several replicate values per cell, some flagged 's' (flag not defined), read-out: BACE1 IC50

| Compound | IC50 [1, 6] | PAMPA [2] | other results |
| --- | --- | --- | --- |
| Cc1cc(C2(c3cccc(F)c3)N=C(N)N(C)C2=S)ccc1OC(F)F (stereo not shown) [FAH-31] | 4340 nM and 3960 nM | 3.07 |  |
| Cc1cc(C2(c3cccc(-c4cccnc4)c3)N=C(N)N(C)C2=O)ccc1OC(F)F (stereo not shown) [FAH-32] | 11 nM and 16 nM and 17 nM | 0.91 and 0.92 | IC50 [3]: > 100000 nM |
| Cc1cc(C2(c3cncnc3)N=C(N)N(C)C2=O)ccc1OC(F)F (stereo not shown) [FAH-33] | > 5000 nM | 0.24 |  |
| Cc1cc(C2(c3cncc(F)c3)N=C(N)N(C)C2=O)ccc1OC(F)F (stereo not shown) [FAH-37] | 1930 nM | 0.54 |  |
| Cc1cc(C2(c3cocn3)N=C(N)N(C)C2=O)ccc1OC(F)F (stereo not shown) [FAH-38] | > 5000 nM | 3.46 |  |
| Cc1cc(C2(c3cccc(F)c3)N=C(N)N(Cc3ccccc3)C2=O)ccc1OC(F)F (stereo not shown) [FAH-42] |  | 2.29 |  |
| Cc1cc(C2(c3cccc(-c4cnco4)c3)N=C(N)N(C)C2=O)ccc1OC(F)F (stereo not shown) [FAH-43] | 140 nM and 230 nM and 490 nM | 0.79 | amyloid-beta (Aβ) [4]: significantly decreased; soluble amyloid precursor protein beta (sAPPβ) [4]: significantly decreased |
| COCc1cccc(C2(c3ccc(OC(F)F)c(C)c3)N=C(N)N(C)C2=O)c1 (stereo not shown) [FAH-44] |  | 0.91 |  |
| Cc1cc(C2(c3ccnc(F)c3)N=C(N)N(C)C2=O)ccc1OC(F)F (stereo not shown) [FAH-46] | 2990 nM | 0.65 |  |
| Cc1cc(C2(c3ccc(OC(F)F)c(C)c3)N=C(N)N(C)C2=O)ccn1 (stereo not shown) [FAH-47] | 3050 nM | 0.46 |  |
| COc1cc(C2(c3ccc(OC(F)F)c(C)c3)N=C(N)N(C)C2=O)ccn1 (stereo not shown) [FAH-48] | 4350 nM | 0.68 |  |
| COCc1cc(C2(c3ccc(OC(F)F)c(C)c3)N=C(N)N(C)C2=O)ccn1 (stereo not shown) [FAH-53] |  | 0.26 |  |
| CC#Cc1cc(C2(c3ccc(OC(F)F)c(C)c3)N=C(N)N(C)C2=O)ccn1 (stereo not shown) [FAH-57] | 440 nM and 510 nM | 0.61 | amyloid-beta (Aβ) [4]: significantly decreased; soluble amyloid precursor protein beta (sAPPβ) [4]: significantly decreased |
| Cc1cc(C2(C3CCCCC3)N=C(N)N(C)C2=O)ccc1OC(F)F (stereo not shown) [FAH-59] | 720 nM | 4.43 |  |
| CNCc1cccc(C2(c3ccc(OC(F)F)c(C)c3)N=C(N)N(C)C2=O)c1 (stereo not shown) [FAH-62] |  | 0.35 |  |
| CNCCc1cccc(C2(c3ccc(OC(F)F)c(C)c3)N=C(N)N(C)C2=O)c1 (stereo not shown) [FAH-63] |  | 0.38 |  |
| Cc1cc(C2(c3cccc(C4CNC4)c3)N=C(N)N(C)C2=O)ccc1OC(F)F (stereo not shown) [FAH-64] |  | 0.35 |  |
| Cc1cc(C2(c3cccc(-c4cncc(F)c4)c3)N=C(N)N(C)C2=O)ccc1OC(F)F (stereo not shown) [FAH-66] | 18 nM and 12 nM and 19 nM and 47 nM and 28 nM and 36 nM | 1.15 | amyloid-beta (Aβ) [4]: significantly decreased; soluble amyloid precursor protein beta (sAPPβ) [4]: significantly decreased |
| Cc1cc(C2(C3CCN(C)CC3)N=C(N)N(C)C2=O)ccc1OC(F)F (stereo not shown) [FAH-67] |  | 0.20 |  |
| CCCC1CC(C2(c3ccc(OC(F)F)c(C)c3)N=C(N)N(C)C2=O)CCN1C (stereo not shown) [FAH-68] | 16100 nM | 0.20 |  |
| Cc1cc(C2(C3CCCC(c4ncco4)C3)N=C(N)N(C)C2=O)ccc1OC(F)F (stereo not shown) [FAH-69] | 110 nM and 210 nM and 120 nM and 430 nM | 0.92 |  |
| Cc1cc(C2(c3cccc(-c4ccnnc4)c3)N=C(N)N(C)C2=O)ccc1OC(F)F (stereo not shown) [FAH-72] | 140 nM and 100 nM and 49 nM and 87 nM and 93 nM | 0.37 |  |
| Cc1cc(C2(c3cccc(-c4ccccc4)c3)N=C(N)N(C)C2=O)ccc1OC(F)F (stereo not shown) [FAH-73] | 530 nM and 690 nM | 5.11 |  |
| CN1C(=O)C(c2ccc(OC(F)F)cc2)(c2cccc(-c3cncnc3)c2)N=C1N (stereo not shown) [FAH-74] | 4.2 nM and 2.5 nM and 5.7 nM and 7.5 nM and 15 nM and 23 nM | 0.36 | IC50 ([1]; cell-free BACE assay): 13 nM |

| Compound | IC50 [1, 6] | PAMPA [2] | other results |
| --- | --- | --- | --- |
| Cc1cccc(C2(c3cccc(-c4cccnc4)c3)N=C(N)N(C)C2=O)c1 (stereo not shown) [FAH-75] | 210 nM and 240 nM and 150 nM and 420 nM | 0.62 |  |
| Cc1cc(C2(c3cccc(-c4ccco4)c3)N=C(N)N(C)C2=O)ccc1OC(F)F (stereo not shown) [FAH-82] | 780 nM and 450 nM and 2400 nM |  |  |
| CN1C(=O)C(c2cnc(OC(F)F)nc2)(c2cccc(F)c2)N=C1N (stereo not shown) [FAH-83] | 2910 nM and 2330 nM and 9190 nM | 0.51 and 0.53 |  |
| CN1C(=O)C(c2ccc(OCF)cc2)(c2cccc(-c3cncnc3)c2)N=C1N (stereo not shown) [FAH-84] |  | 0.30 |  |
| Cc1cc(C2(C3CCCC(c4cncnc4)C3)N=C(N)N(C)C2=O)ccc1OC(F)F (stereo not shown) [FAH-85] | 220 nM | 0.51 2 peaks |  |
| Cc1cc(C2(c3cccc(-c4cnccn4)c3)N=C(N)N(C)C2=O)ccc1OC(F)F (stereo not shown) [FAH-86] |  | 0.68 | IC50 [3]: > 50000 nM |
| Cc1cc(C2(c3cccc(-c4ccncn4)c3)N=C(N)N(C)C2=O)ccc1OC(F)F (stereo not shown) [FAH-87] | 300 nM and 340 nM and 420 nM and 290 nM | 0.58 |  |
| CC1CCN(c2cccc(C3(c4ccc(OC(F)F)cc4)N=C(N)N(C)C3=O)c2)C1 (stereo not shown) [FAH-88] | 840 nM and 600 nM and 2130 nM | 4.53 2-peaks |  |
| Cc1cc(C2(c3cccc(NC(=O)N(C)C)c3)N=C(N)N(C)C2=O)ccc1OC(F)F (stereo not shown) [FAH-99] | 150 nM and 210 nM | 0.38 |  |
| CN1C(=O)C(C)(c2cccc(-c3cncnc3)c2)N=C1N (stereo not shown) [FAH-100] | 2310 nM and 4850 nM | 0.27 |  |
| CC#Cc1cncc(-c2cccc(C3(C(C)C)N=C(N)N(C)C3=O)c2)n1 (stereo not shown) [FAH-101] |  | 1.71 |  |
| CCCc1cncc(-c2cccc(C3(C(C)C)N=C(N)N(C)C3=O)c2)n1 (stereo not shown) [FAH-106] | 2180 nM and 3160 nM | 2.36 |  |
| Cc1ncc(-c2cccc(C3(C4CC4)N=C(N)N(C)C3=O)c2)cn1 (stereo not shown) [FAH-107] | 8870 nM and 4930 nM and 6880 nM | 0.40 |  |
| Cc1cc(C2(c3cccc(-c4cnc(N)nc4)c3)N=C(N)N(C)C2=O)ccc1OC(F)F (stereo not shown) [FAH-110] | 47 nM and 38 nM | 0.46 | IC50 ([1]; cell-free BACE assay): 43 nM |
| Cc1cc(C2(c3cccc(-c4cncc(C5CC5)c4)c3)N=C(N)N(C)C2=O)ccc1OC(F)F (stereo not shown) [FAH-111] | 80 nM and 110 nM | solubility issue |  |
| CN1C(=O)C(c2cccc(-c3cncnc3)c2)(c2ccc3occc3c2)N=C1N (stereo not shown) [FAH-116] | 270 nM and 260 nM | 0.52 |  |
| CN1C(=O)C(c2cccc(-c3cncnc3)c2)(c2ccc3c(c2)CCO3)N=C1N (stereo not shown) [FAH-117] | 1370 nM and 410 nM | 0.32 |  |
| CN1C(=O)C(c2cc(-c3cncc(F)c3)ccc2F)(C2CC2)N=C1N (stereo not shown) [FAH-126] |  |  | BACE1 IC50 (μM) ([1]; cell-free, several replicate values per cell, some flagged 's' (flag not defined)): inactive |
| Cc1cc(C2(c3ccc(F)c(-c4cncnc4)c3)N=C(N)N(C)C2=O)ccc1OC(F)F (stereo not shown) [FAH-127, 2-amino-5-(4-(difluoromethoxy)-3-methylphenyl)-5-(4-fluoro-3-(pyrimidin-5-yl)phenyl)-3-methyl-3,5-dihydro-4H-imidazol-4-one] | 14 nM and 13 nM and 5 nM and 24.6 nM | 0.53 and 0.49 and 0.50 | IC50 ([1]; cell-free BACE assay): 13 nM; brain penetrance [5]: good brain-penetrance; brain peak ([5]; at 1 hour): ~3000 (range 600-6000) ng/g |
| CN1C(=O)C(c2cccc(-c3cncnc3)c2)(c2ccc3c(c2)OCCO3)N=C1N (stereo not shown) [FAH-135] | 210 nM | 0.26 |  |
| CN1C(=O)C(c2cccc(-c3cncnc3)c2)(c2ccc3c(c2)OCO3)N=C1N (stereo not shown) [FAH-136] | 250 nM | 0.30 |  |
| CN1C(=O)C(c2cccc(-c3cncnc3)c2)(c2ccc3c(c2)OC(F)(F)O3)N=C1N (stereo not shown) [FAH-137] | 460 nM | 0.59 |  |
| CC#Cc1cncc(-c2cc(C3(c4ccnc(C(F)F)c4)N=C(N)N(C)C3=O)ccc2F)c1 (stereo not shown) [FAH-152] | 20 nM | 0.46 |  |
| Cc1cc(C2(c3cc(-c4cncnc4)ccc3F)N=C(N)N(C)C2=O)ccc1OC(F)F (stereo not shown) [FAH-156] | 200 nM | 0.25 |  |
